In patent US10914725B2, “Culture medium additive, culture medium composition, and method for culturing cells or tissue using same” (NISSAN CHEMICAL INDUSTRIES, LTD., priority 2015, dated 2021):

Legend:
[1] = system: adenocarcinomic human alveolar basal epithelial cell line A549; experiment: CellTiter-Glo cell survival assay of anticancer agents (Experimental Example 8); type: cell-based; conditions: for IC50: Homo sapiens, A549, cell survival assay by luminescence, read-out: 50% inhibitory concentration
Procedure: Adenocarcinomic human alveolar basal epithelial cell line A549 (manufactured by DS PHARMA BIOMEDICAL CO., LTD.) was suspended in the above-mentioned medium composition containing low-molecular agar at 11,000 cells/mL. The above-mentioned cell suspension was dispensed to the wells of a 96 well flat bottom ultra-low attachment surface microplate (manufactured by Corning Incorporated, #3474) at 90 μL per 1 well. The plate was stood in a CO2 incubator (37° C., 5% CO2) overnight. […] Successively, the plate was further cultured in a standing state in a CO2 incubator (37° C., 5% CO2) for 7 days. As a negative control, a medium composition containing 10 (v/v) % FBS alone in DMEM (manufactured by Wako Pure Chemical Industries, Ltd.) was prepared. […] A549 cells were also suspended in each of the negative control and comparison control medium compositions, the negative control was dispensed to a 96 well flat bottom attachment surface microplate (manufactured by Corning Incorporated, #3585) and the comparison control was dispensed to a 96 well flat bottom ultra-low attachment surface microplate (manufactured by Corning Incorporated, #3474). […] CellTiter-Glo Luminescent Cell Viability Assay (manufactured by Promega) (100 μL) was added to the low-molecular agar-containing culture medium and each cell culture medium of the negative control and comparison control, the mixture was stood for 10 min at room temperature, and the amount of luminescence was measured by a microplate reader (“FlexStation 3”, manufactured by Molecular Devices) and according to the protocol recommended by Promega. The amount of luminescence of the medium alone was subtracted, whereby the number of viable cells was measured.

[2] = system: adenocarcinomic human alveolar basal epithelial cell line A549; experiment: CellTiter-Glo cell survival assay of paclitaxel (Experimental Example 5); type: cell-based; conditions: for IC50: Homo sapiens, A549, cell survival assay by fluorescence, read-out: paclitaxel 50% inhibitory concentration; for relative cell number (no anticancer agent = 1): 10 days
Procedure: As a negative control, a medium composition containing 10 (v/v) % FBS alone in DMEM (manufactured by Wako Pure Chemical Industries, Ltd.) was prepared. As a comparison control, in the same manner as in Experimental Example 3, a medium composition containing 10 (v/v) % FBS and 0.015 (w/v) % of deacylated gellan gum in DMEM (manufactured by Wako Pure Chemical Industries, Ltd.) was prepared. Paclitaxel was also added at the above-mentioned concentration to the negative control and comparison control medium compositions, A549 cells were suspended therein and the suspensions were dispensed. Successively, the plate was cultured in a standing state in a CO2 incubator (37° C., 5% CO2) for 10 days.
CellTiter-Glo Luminescent Cell Viability Assay (manufactured by Promega) (100 μL) was added to each cell culture medium of the negative control and comparison control, the mixture was stood for 10 min at room temperature, and the amount of luminescence was measured by a microplate reader (“FlexStation 3”, manufactured by Molecular Devices) and according to the protocol recommended by Promega. The amount of luminescence of the medium alone was subtracted, whereby the number of viable cells was measured. In addition, 50% inhibitory concentration (nM) of paclitaxel by the amount of luminescence was calculated with the number of viable cells when paclitaxel was not added as 0% inhibition rate.

**Q.** Which results are given for `CC(=O)O[C@H]1C(=O)[C@@]2(C)[C@H]([C@H](OC(=O)c3ccccc3)[C@]3(O)C[C@H](OC(=O)[C@H](O)[C@@H](NC(=O)c4ccccc4)c4ccccc4)C(C)=C1C3(C)C)[C@]1(OC(C)=O)CO[C@@H]1C[C@@H]2O` [paclitaxel, Paclitaxel]?
**A.** IC50 ([1]; comparison control (0.015 (w/v)% deacylated gellan gum medium)): 4.5 nM; IC50 ([1]; low-molecular agar-containing medium): 4.9 nM; IC50 ([1]; negative control (DMEM, 10% FBS, attachment surface plate)): 4.1 nM; relative cell number (no anticancer agent = 100) ([1]; agent 0.001 μM, comparison control (0.015 (w/v)% deacylated gellan gum medium)): 99.9; relative cell number (no anticancer agent = 100) ([1]; agent 0.001 μM, low-molecular agar-containing medium): 102.4; relative cell number (no anticancer agent = 100) ([1]; agent 0.001 μM, negative control (DMEM, 10% FBS, attachment surface plate)): 100.1; relative cell number (no anticancer agent = 100) ([1]; agent 0.01 μM, comparison control (0.015 (w/v)% deacylated gellan gum medium)): 23.5; relative cell number (no anticancer agent = 100) ([1]; agent 0.01 μM, low-molecular agar-containing medium): 27; relative cell number (no anticancer agent = 100) ([1]; agent 0.01 μM, negative control (DMEM, 10% FBS, attachment surface plate)): 18.8; relative cell number (no anticancer agent = 100) ([1]; agent 0.1 μM, comparison control (0.015 (w/v)% deacylated gellan gum medium)): 10.8; relative cell number (no anticancer agent = 100) ([1]; agent 0.1 μM, low-molecular agar-containing medium): 12.1; relative cell number (no anticancer agent = 100) ([1]; agent 0.1 μM, negative control (DMEM, 10% FBS, attachment surface plate)): 5.5; IC50 ([2]; comparison control medium (0.015 (w/v)% deacylated gellan gum)): 2.9 nM; IC50 ([2]; negative control medium (DMEM, 10% FBS alone)): 4.4 nM; relative cell number (no anticancer agent = 1) ([2]; paclitaxel 0.001 μM, comparison control medium (0.015 (w/v)% deacylated gellan gum)): 0.842; relative cell number (no anticancer agent = 1) ([2]; paclitaxel 0.001 μM, negative control medium (DMEM, 10% FBS alone)): 1.004; relative cell number (no anticancer agent = 1) ([2]; paclitaxel 0.01 μM, comparison control medium (0.015 (w/v)% deacylated gellan gum)): 0.156; relative cell number (no anticancer agent = 1) ([2]; paclitaxel 0.01 μM, negative control medium (DMEM, 10% FBS alone)): 0.249
